Assay results taken from patent US20240382487A1, “NOVEL COPI/ARF1-LIPOLYSIS PATHWAY INHIBITOR AND COMPOUND FOR ERADICATING CANCER STEM CELLS AND INDUCING DAMP-MEDIATED ANTI-TUMOR IMMUNE RESPONSE” (FUDAN UNIVERSITY, priority 2020, published 2024).
Where two headings read alike, the source gives them in different places.

Tests used:
[1] = test system: IL-1β; assay: IL-1β assay, CD11c+ DCs co-cultured with treated CT26 cells; format: cell-based; conditions: CT-26 colon cancer model, BALB/c mice; co-culture 2 days
Protocol: For IL-1 β Assay: seven days after CT26 cell lysate injection. CD11c+DCs were isolated from injected BALB/c mice and co cultured with CT26 cells treated with DMSO or du102. After 2 days, […] was measured in harvested cells (Table 11). For the IFN-y assay: CD11c^+ DC and CD8^+ T cells were isolated from injected BALB/c mice 7 days after CT26 cell lysate injection and co cultured with CT26 cells treated with DMSO or du102. After 2 days. IFN-y was measured in harvested cells (table 11).

[2] = test system: liver tumors in MYC-ON mice; assay: MYC-ON liver tumor model; format: in vivo
Source text: We used the Tet system to generate transgenic mice conditionally expressing the myc pro-oncogene in hepatocytes, […] myc/lap TTA (lt2-myc) (shachaf et al., 2004). We crossed tre-myc mice with a transgenic line, lap TTA. in which the liver activator protein (LAP) promoter drives the expression of tetracycline trans-activator protein (TTA) in hepatocytes. We confirmed this by discontinuing the feeding of doxycycline (myc-ON) activated myc transgene expression in 3-week-old mice. Subsequently. all transgenic mice overexpressing myc succumbed to liver tumors with a mean latency to tumor onset of 12 weeks, as previously reported (shachaf et al., 2004). In this lap TTA/tet-off myc conditional transgenic mouse model, myc overexpression in adult mice reproducibly induces liver cancer, similar to hepatocellular carcinoma and/or hepatoblastoma. The transgenic tumor invades the entire liver locally and is frequently associated with malignant peritoneal effusions that spread to the thoracic cavity by metastasis and invade the lung parenchyma.
For the mouse liver tumor model, mating cages and weaning cages were administrated by a grain based rodent diet (Bio-Serv. Cat #14-727-450) containing 200 mg/kg doxycycline, and the mice were induced tumors at 6 weeks of age, by changing to a normal diet. Mice were divided into three groups, control, Du 101 treated and du102 treated. The control group was given 100 by gavage using a feeding tube 100 μl/10 g body weight (BW) 20% DMSO+80% corn oil. Du 101 treated groups were treated with 25 mg/ml Du 101. The stock solution was diluted 1:4 with corn oil to make the working solution. Dul02 treatment groups were treated with 25 mg/ml du102 stock solution diluted 1:4 with corn oil to make working solutions. The mixed working solution was administered to mice by gavage using a feeding tube. Starting from the second week of myc-0n, 5 injections per week ([…]) were given for 4 weeks, mice were monitored every 2 days, and 10 weeks later mice were euthanized and analyzed for tumor growth.
For the myc-on liver tumor model, antibodies were i.p. Mg/kg) was injected once a week for 5 consecutive weeks, the first Doxycycline was discontinued weekly after injection. Antibodies used to treat mice were as follows: anti-CD4 (clone GK1.5, BioXcell, Cat #BE0003-1), anti-CD8 a (clone 2.43, BioXcell, Cat #BE0061) Or […] rat IgG (bioxcell, cat #be0094) isotype control antibody. From the second week of myc-on initiation lasted for 4 weeks, Du 102 and DMSO were administered by gavage needle as described above, mice were monitored every 2 days, and 10 weeks later mice were euthanized and analyzed for tumor growth.
For the myc-on liver tumor model, antibodies were i.p. Injection once a week for 5 weeks, and doxycycline was discontinued weekly after the first injection. Antibodies used to treat mice were as follows: 100 ug/mouse Armenian hamster anti mouse PD1 (J43, bioxcell, cat #be0033-2) and 100 ug/mouse Armenian hamster isotype IgG (bioxcell. cat #bp0091) was used as controls. For 4 weeks from the second week of myc-on, Du 102 and DMSO were administered by gavage needle as described above, mice were monitored every 2 days. and 10 weeks later mice were euthanized and analyzed for tumor growth. Coadministration of anti-PD-1 antibodies may allow the use of lower, less toxic doses of du102, thus avoiding known side effects.

[3] = test system: lung cancer cells H460; assay: In vitro cell line screening, H460; format: cell-based
Source text: (§1) In different tumor cytotoxicity experiments in vitro (FIG. 2-FIG. 7), including colorectal cancer cell lines HT29 and LoVo cells, liver cancer cell Huh7, lung cancer cells H460 and A549, the arf1 inhibitor could all inhibit tumor cell growth (FIG. 2-FIG. 6), and there was a dose-dependent manner (FIG. 7).

[4] = test system: tumor cells; assay: Tumor cytotoxicity experiments in vitro (all lines, general statements); format: cell-based; conditions: HT29, LoVo, Huh7, H460, A549; FIG. 2-7
Source text: as §1

[5] = test system: colorectal cancer cell line HT29; assay: In vitro cell line screening, HT29; format: cell-based
Source text: as §1

[6] = test system: lung cancer cells A549; assay: In vitro cell line screening, A549; format: cell-based
Source text: as §1

[7] = test system: MHC expression, CD4 and CD8 T cell infiltration; assay: MHC expression and T-cell infiltration in MYC-ON mice; format: in vivo
Source text: Du 102 treatment increases MHC expression. CD4 and CD8 T cell infiltration as quantified by Q-PCR in myc-on mice (Table 16).
MHC-1 or MHC-II positive infiltrating CD4+ and CD8+ T-cells measured by immunohistochemical staining of representative section.

[8] = test system: liver cancer cell Huh7; assay: In vitro cell line screening, Huh7; format: cell-based
Source text: as §1

[9] = test system: IL-1β; assay: IL-1β induction, B16-F10 melanoma model; format: cell-based; conditions: B16-F10 melanoma model in C57B/6 mice
Source text: Example 7. Dulo2 Treatment Induces IL-1 in B16-F10 Melanoma of C57B/6 Mice. (Table 12)

[10] = test system: normal human bone marrow hematopoietic stem cells (HSCs)
Source text: We tested 10 reported Arf1 inhibitors (Bill et al., 2011; Boal et al., 2010; Feng et al., 2004; Newton et al., 2006; Ohashi et al., 2012; Sáenz et al., 2009; Sorieul et al., 2011; Viaud et al., 2007), including brefeldin A (BFA), Golgicide A (GCA), LM11, Secin16, Secin H3, Secin B7, Exo1, Exo2, LG8, and LG18, on Drosophila stem cell tumors and normal human bone marrow hematopoietic stem cells (HSCs).

Substance: 1H-indolo-5-carbaldehyde 5,6,7,8,9,10-hexahydrocycloocta[4,5]thieno[2,3-d]pyrimidin-4-ylhydrazone [Du 102]
- IL-1β [1]: 954
- survival time of myc-on mice [2]: prolonged the survival time
- anti-tumor effects (liver tumors) ([2]; Du102 + Anti-CD4): 69.5
- anti-tumor effects (liver tumors) ([2]; Du102 + Anti-CD4/CD8): 89.7
- number of tumors ([2]; Du102 + Anti-PD-1): 4.4
- anti-tumor effects (liver tumors) ([2]; Du102 + Isotype, Table 18): 27.5
- number of tumors ([2]; Du102 + Isotype, Table 19): 42.3
- liver tumor numbers ([2]; gavage, 5 per week for 4 weeks, analyzed 10 weeks later): 26.7
- tumor suppressive effect [3]: potency tumor suppressive effect
- tumor suppressive effect ([3]; listed as Dul02): effective tumor suppressive effects
- tumor suppressive / inhibitory effect on tumor cells [4]: Some Tumor Suppressive Effect
- tumor suppressive effect [5]: some tumor suppressive effect
- tumor suppressive effect ([5]; listed as Dul02): effective tumor suppressive effects
- tumor suppressive effect [6]: potency tumor suppressive effect
- tumor suppressive effect ([6]; listed as Dul02): effective tumor suppressive effects
- MHC-1 ([7]; DMSO 0.6): 51.7
- MHC-II ([7]; DMSO 0.7): 43.6
- CD4 ([7]; DMSO 1.0): 13.2
- CD8 ([7]; DMSO 2.0): 13.5
- tumor suppressive effect [8]: Tumor suppression effect
- tumor suppressive effect ([8]; listed as Dul02): effective tumor suppressive effects
- IL-1β [9]: 952
- toxicity (killing normal HSCs) [10]: relatively low toxicity
